Experimental findings from patent US20260216164A1, “INDOLE COMPOUND DECOMPOSING IKZF2, AND USE THEREOF” (KOREA RESEARCH INSTITUTE OF CHEMICAL TECHNOLOGY, priority 2023, published 2026) are described below.

Structures are written as SMILES.

The target in this test is Helios (IKZF2) (Homo sapiens, UniProt Q96SW2+Q9UKS7). Put plainly: Screening of Helios protein degraders using Nano-Glo HiBiT cell line (HiBiT-IKZF2). As to conditions: for remaining activity at 10 µM: compound 10 μM, read-out: HiBiT-IKZF2 Residual amount of Helios (%) 10 μM; for remaining activity at 10 µM / remaining activity at 1 µM: 6 hours, HiBiT-Helios knock-in Jurkat cells; for remaining activity at 1 µM: compound 1 μM, read-out: HiBiT-IKZF2 Residual amount of Helios (%) 1 μM. Format: cell-based. As to the method: To observe intracellular degradation of Helios, the Nano-Glo HiBiT detection system (Promega) was employed. […] The cells expressing Helios fused with HiBiT were validated using the Nano-Glo HiBiT detection system (Promega) according to a predetermined protocol, isolated as single cells, and cultured in complete medium to establish a monoclonal cell line.
After 6 hours, the Nano-Glo HiBiT detection reagent was added to each well in an equal volume to the cell culture medium and incubated at room temperature for 10 minutes. Following incubation, the HiBiT luminescence signal was measured using a microplate reader (Perkin Elmer).
A general note: HiBiT is a short tag that completes a luciferase, so light tracks the accessible tagged protein.

Sequence of Helios (IKZF2) (Q9UKS7 whole entry, the tested form may be a part): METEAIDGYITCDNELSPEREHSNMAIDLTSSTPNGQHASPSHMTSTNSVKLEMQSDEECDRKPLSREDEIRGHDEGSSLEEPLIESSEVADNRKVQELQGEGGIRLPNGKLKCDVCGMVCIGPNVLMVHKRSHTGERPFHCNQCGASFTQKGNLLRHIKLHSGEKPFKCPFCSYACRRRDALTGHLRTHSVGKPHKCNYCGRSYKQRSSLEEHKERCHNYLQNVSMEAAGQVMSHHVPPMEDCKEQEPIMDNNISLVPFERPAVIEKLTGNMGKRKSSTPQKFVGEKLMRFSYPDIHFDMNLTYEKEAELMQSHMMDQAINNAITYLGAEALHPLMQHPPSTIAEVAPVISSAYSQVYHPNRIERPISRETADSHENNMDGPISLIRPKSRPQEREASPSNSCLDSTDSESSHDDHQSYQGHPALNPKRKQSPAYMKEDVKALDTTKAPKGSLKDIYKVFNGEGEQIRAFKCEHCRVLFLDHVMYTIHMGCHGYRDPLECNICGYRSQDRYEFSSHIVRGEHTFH
Sequence of Helios (IKZF2) (Q96SW2 whole entry, the tested form may be a part): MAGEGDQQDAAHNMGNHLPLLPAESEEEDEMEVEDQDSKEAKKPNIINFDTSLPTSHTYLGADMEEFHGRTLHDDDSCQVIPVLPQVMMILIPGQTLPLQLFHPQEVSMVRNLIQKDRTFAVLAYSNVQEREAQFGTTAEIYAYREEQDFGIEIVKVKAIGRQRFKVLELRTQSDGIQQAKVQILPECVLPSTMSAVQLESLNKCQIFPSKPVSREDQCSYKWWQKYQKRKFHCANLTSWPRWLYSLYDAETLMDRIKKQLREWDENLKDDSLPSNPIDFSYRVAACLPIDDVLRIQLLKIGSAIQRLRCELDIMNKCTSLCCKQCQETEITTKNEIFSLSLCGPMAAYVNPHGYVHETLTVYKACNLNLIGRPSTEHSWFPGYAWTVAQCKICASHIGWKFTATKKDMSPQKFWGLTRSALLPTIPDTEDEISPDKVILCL
Sequence of Helios (IKZF2) (Q16531 whole entry partner, the tested form may be a part): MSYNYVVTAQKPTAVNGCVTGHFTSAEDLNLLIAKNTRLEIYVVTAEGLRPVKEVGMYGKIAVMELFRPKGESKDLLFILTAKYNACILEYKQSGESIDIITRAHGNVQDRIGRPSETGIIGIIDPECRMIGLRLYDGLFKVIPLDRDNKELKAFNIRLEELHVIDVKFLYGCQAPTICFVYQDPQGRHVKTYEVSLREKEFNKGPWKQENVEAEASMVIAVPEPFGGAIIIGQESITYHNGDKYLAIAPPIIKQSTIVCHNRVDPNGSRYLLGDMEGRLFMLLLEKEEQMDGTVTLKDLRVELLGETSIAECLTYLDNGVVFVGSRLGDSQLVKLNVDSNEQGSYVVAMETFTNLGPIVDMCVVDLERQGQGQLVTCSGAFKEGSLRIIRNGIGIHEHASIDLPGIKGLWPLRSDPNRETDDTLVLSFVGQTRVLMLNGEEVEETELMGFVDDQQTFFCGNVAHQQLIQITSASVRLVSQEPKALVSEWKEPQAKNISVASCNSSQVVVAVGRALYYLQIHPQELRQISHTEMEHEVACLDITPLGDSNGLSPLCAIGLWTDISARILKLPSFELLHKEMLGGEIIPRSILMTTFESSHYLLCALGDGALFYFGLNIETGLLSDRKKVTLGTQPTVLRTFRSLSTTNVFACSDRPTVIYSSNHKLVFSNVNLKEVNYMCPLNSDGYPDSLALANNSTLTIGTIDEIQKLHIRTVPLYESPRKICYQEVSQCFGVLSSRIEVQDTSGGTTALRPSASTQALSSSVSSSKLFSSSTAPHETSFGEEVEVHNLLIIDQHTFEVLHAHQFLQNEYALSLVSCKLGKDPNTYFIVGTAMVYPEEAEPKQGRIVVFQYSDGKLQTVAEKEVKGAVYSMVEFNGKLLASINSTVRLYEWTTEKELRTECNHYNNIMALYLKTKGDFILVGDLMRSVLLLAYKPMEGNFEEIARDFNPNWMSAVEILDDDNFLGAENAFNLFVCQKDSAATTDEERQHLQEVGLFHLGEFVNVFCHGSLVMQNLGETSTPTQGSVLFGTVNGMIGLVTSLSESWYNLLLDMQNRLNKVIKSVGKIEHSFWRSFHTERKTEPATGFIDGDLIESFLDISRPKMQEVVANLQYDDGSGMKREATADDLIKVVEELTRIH

For `Cc1c(C(=O)N2CCC(c3ccc4c(c3)CN(C3CCC(=O)NC3=O)C4=O)CC2)[nH]c2cc(F)ccc12` (stereo not drawn) [Compound 54, 3-(5-(1-(6-fluoro-3-methyl-1H-indole-2-carbonyl)piperidin-4-yl)-1-oxoinsoindolin-2-yl)piperidine-2,6-dione], the remaining activity at 10 µM was 26.8%.
`O=C1CCC(N2Cc3cc(C4CCN(C(=O)c5cc6cccc(Cl)c6[nH]5)CC4)ccc3C2=O)C(=O)N1` (stereo not drawn) [Compound 8, 3-(5-(1-(7-chloro-1H-indole-2-carbonyl)piperidin-4-yl)-1-oxoinsoindolin-2-yl)piperidine-2,6-dione]: the remaining activity at 1 µM is 99.5% and the remaining activity at 10 µM was 109%.
Consider `CC1CC(c2ccc3c(c2)CN(C2CCC(=O)NC2=O)C3=O)CCN1C(=O)c1cc2ccc(Cl)cc2[nH]1` (stereo not drawn) [Compound 59, 3-(5-(1-(6-chloro-1H-indole-2-carbonyl)-2-methylpiperidin-4-yl)-1-oxoinsoindolin-2-yl)piperidine-2,6-dione], for which the remaining activity at 10 µM was 25.4%.
As to `Cc1c(C(=O)N2CC(N3CCC(c4ccc5c(c4)CN(C4CCC(=O)NC4=O)C5=O)CC3)C2)[nH]c2cc(Cl)ccc12` (stereo not drawn) [Compound 63, 3-(5-(1-(1-(6-chloro-3-methyl-1H-indole-2-carbonyl)azetidin-3-yl)piperidin-4-yl)-1-oxoinsoindolin-2-yl)piperidine-2,6-dione], the remaining activity at 10 µM was found to be 30.7%. Besides, under “as shown in Table 1”, the “IKZF2 degradation activity (in words, comment on Table 1)” value is reported as “excellent IKZF2 degradation activity”.
Consider `O=C1CCC(N2Cc3cc(C4CCN(C(=O)c5cc6c(Cl)cc(Cl)cc6[nH]5)CC4)ccc3C2=O)C(=O)N1` (stereo not drawn) [Compound 6, 3-(5-(1-(4,6-dichloro-1H-indole-2-carbonyl)piperidin-4-yl)-1-oxoinsoindolin-2-yl)piperidine-2,6-dione], for which the remaining activity at 1 µM was 107% and the remaining activity at 10 µM is 107%.
For the molecule `Cc1c(C(=O)N2CCC(c3ccc4c(c3)CN(C3CCC(=O)NC3=O)C4=O)CC2)[nH]c2c(C)c(Cl)ccc12` (stereo not drawn) [Compound 100, 3-(5-(1-(6-chloro-3,7-dimethyl-1H-indole-2-carbonyl)piperidin-4-yl)-1-oxoinsoindolin-2-yl)piperidine-2,6-dione], the remaining activity at 1 µM was determined as 16.8% and the remaining activity at 10 µM is 11.4%.
For the molecule `Cc1c(C(=O)N2CCC(c3ccc4c(c3)CN(C3CCC(=O)NC3=O)C4=O)CC2)[nH]c2ccc(Br)cc12` (stereo not drawn) [Compound 33, 3-(5-(1-(5-bromo-3-methyl-1H-indole-2-carbonyl)piperidin-4-yl)-1-oxoinsoindolin-2-yl)piperidine-2,6-dione], the remaining activity at 1 µM is 71.3% and the remaining activity at 10 µM was found to be 64.4%.
Consider `O=C1CCC(N2Cc3cc(C4CCN(C(=O)c5cc6cnc(Cl)cc6[nH]5)CC4)ccc3C2=O)C(=O)N1` (stereo not drawn) [Compound 46, 3-(5-(1-(6-chloro-1H-picolo[3,2-c]pyridine-2-carbonyl)piperidin-4-yl)-1-oxoinsoindolin-2-yl)piperidine-2,6-dione], for which the remaining activity at 1 µM worked out at 58.1% and the remaining activity at 10 µM came out at 47.4%.
For the molecule `COc1ccc2cc(C(=O)N3CCC(c4ccc5c(c4)CN(C4CCC(=O)NC4=O)C5=O)CC3)[nH]c2c1` (stereo not drawn) [Compound 5, 3-(5-(1-(6-methoxy-1H-indole-2-carbonyl)piperidin-4-yl)-1-oxoinsoindolin-2-yl)piperidine-2,6-dione], the remaining activity at 1 µM came to 86.7% and the remaining activity at 10 µM stood at 88.2%.
For `O=Cc1c(C(=O)N2CCC(c3ccc4c(c3)CN(C3CCC(=O)NC3=O)C4=O)CC2)[nH]c2ccccc12` (stereo not drawn) [Compound 35, 2-(4-(2-(2,6-dioxopiperidin-3-yl)-1-oxoindolin-5-yl)piperidine-1-carbonyl)-1H-indole-3-carbaldehyde] the same measures were 76.6% and 52.3%.
The like results for `Cc1c(C(=O)N2CCC(c3ccc4c(c3)CN(C3CCC(=O)NC3=O)C4=O)CC2)[nH]c2ncccc12` (stereo not drawn) [Compound 31, 3-(5-(1-(3-methyl-1H-picolo[2,3-b]pyridine-2-carbonyl)piperidin-4-yl)-1-oxoinsoindolin-2-yl)piperidine-2,6-dione] were, in that order, 75% and 94.3%.
As to `Cc1c(C(=O)N2CCC(c3ccc4c(c3)CN(C3CCC(=O)NC3=O)C4=O)CC2)[nH]c2cc(C(C)(C)C)ccc12` (stereo not drawn) [Compound 56, 3-(5-(1-(6-(tert-butyl)-3-methyl-1H-indole-2-carbonyl)piperidin-4-yl)-1-oxoinsoindolin-2-yl)piperidine-2,6-dione], the remaining activity at 10 µM was determined as 31.3%.
Regarding `O=C1CCC(N2Cc3cc(C4CCN(C(=O)c5cc6ccccc6[nH]5)CC4)ccc3C2=O)C(=O)N1` (stereo not drawn) [Compound 9, 3-(5-(1-(1H-indole-2-carbonyl)piperidin-4-yl)-1-oxoinsoindolin-2-yl)piperidine-2,6-dione], the remaining activity at 1 µM is 94.5% and the remaining activity at 10 µM stood at 99.5%.
For `Cc1cc2c(C)c(C(=O)N3CCC(c4ccc5c(c4)CN(C4CCC(=O)NC4=O)C5=O)CC3)[nH]c2cc1Cl` (stereo not drawn) [Compound 103, 3-(5-(1-(6-chloro-3,5-dimethyl-1H-indole-2-carbonyl)piperidin-4-yl)-1-oxoinsoindolin-2-yl)piperidine-2,6-dione] the same measures were 26.8% and 20.6%.
`O=C1CCC(N2Cc3cc(C4CCN(C(=O)c5cc6cccc(F)c6[nH]5)CC4)ccc3C2=O)C(=O)N1` (stereo not drawn) [Compound 19, 3-(5-(1-(7-fluoro-1H-indole-2-carbonyl)piperidin-4-yl)-1-oxoinsoindolin-2-yl)piperidine-2,6-dione]: the remaining activity at 1 µM came to 80.5% and the remaining activity at 10 µM came to 82.7%.
Take `O=C1CCC(N2Cc3cc(C4CC5CCC(C4)N5C(=O)c4cc5ccc(Cl)cc5[nH]4)ccc3C2=O)C(=O)N1` (stereo not drawn) [Compound 57, 3-(5-(8-(6-chloro-1H-indole-2-carbonyl)-8-azabicyclo[3.2.1]octan-3-yl)-1-oxoinsoindolin-2-yl)piperidine-2,6-dione]: the remaining activity at 10 µM amounted to 64.5%.
On to `Cc1ccc2c(C)c(C(=O)N3CCC(c4ccc5c(c4)CN(C4CCC(=O)NC4=O)C5=O)CC3)[nH]c2c1` (stereo not drawn) [Compound 69, 3-(5-(1-(3,6-dimethyl-1H-indole-2-carbonyl)piperidin-4-yl)-1-oxoinsoindolin-2-yl)piperidine-2,6-dione], for which the remaining activity at 1 µM amounted to 22% and the remaining activity at 10 µM stood at 41.8%.
For `O=C1CCC(N2Cc3cc(C4CCN(C(=O)c5cc6ccc(C(F)(F)F)cc6[nH]5)CC4)ccc3C2=O)C(=O)N1` (stereo not drawn) [Compound 41, 3-(1-oxo-5-(1-(6-(trifluoromethyl)-1H-indole-2-carbonyl)piperidin-4-yl)isoindolin-2-yl)piperidine-2,6-dione] the same measures were 41.7% and 38.5%.
Take `Cc1c(C(=O)N2CCC(c3ccc4c(c3F)CN(C3CCC(=O)N(COC(=O)C(C)(C)C)C3=O)C4=O)CC2)[nH]c2cc(Cl)ccc12` (stereo not drawn) [Compound 123, (3-(5-(1-(6-chloro-3-methyl-1H-indole-2-carbonyl)piperidin-4-yl)-4-fluoro-1-oxoinsoindolin-2-yl)-2,6-dioxopiperidin-1-yl)methyl pivalate]: the remaining activity at 10 µM is 14.3%.
